Like-named read-outs stand apart in the source and are kept apart here.
Experiments:
HDAC1 = HDAC1 (Homo sapiens, UniProt Q13547); experiment: HDAC biochemical activity measurement (fluorescent substrate deacetylation);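 further: fluorogenic acetyl-lysine substrate (20 µM) deacetylated by HDAC1, then developer releases fluorophore read at 360 nm excitation and 460 nm emission, inhibitor incubated 30 min at 37 °C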
Method: (§2) The chemical activity of the compound is determined according to the degree of deacetylation inhibition of the HDAC enzyme. This experiment measured the degree of deacetylation related to tumor proliferation and metastasis of HDAC1, HDAC2, HDAC3, HDAC8, HDAC11 five subtypes HDAC enzymes. After the substrate containing an acetylated lysine side chain and HDAC enzyme are labeled with a fluorescent label, the fluorescent substrate is de acetyl. The fluorescent labeled substrate is cleaved by the enzyme, and the fluorescent substance is released, which generates 460 nm emission light under the excitation of 360 nm light.
(§3) HDAC substrate was diluted with reaction buffer to 200M (reaction concentration of 20M), the HDAC enzyme was diluted to the appropriate concentration, then added different concentrations of the test compounds and acted at 37° C. 30 minutes, and then added the same volume of 2-times concentration substrate developing solution (developer), incubated at room temperature for 15 minutes.

[1] = tested on: N-87 (human gastric cancer cells); experiment: MTT cancer cell growth inhibition; format: cell-based; settings: Homo sapiens, 72 h, MTT, 72 hours incubation, N-87 cells; read-out: GI50 N-87
Procedure, shortened: (§1)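 Growth inhibition is scored with MTT after three days of compound treatment spanning 10^−5–10^−10 M. Cells are maintained in DMEM or 1640 medium containing 10% FBS and plated at 1500 per well the previous night; absorbance at 570 nm gives viability, from which GI50 is calculated.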

[2] = tested on: KBM5-T315I (human chronic myelogenous leukemia); experiment: MTT cancer cell growth inhibition; format: cell-based; settings: Homo sapiens, 72 h, MTT, 72 hours incubation, KBM5-T315I cells; read-out: GI50 KBM5-T315I
Procedure, shortened: as §1

[3] = tested on: Bel-7402 (human hepatoma cells); experiment: MTT cancer cell growth inhibition; format: cell-based; settings: Homo sapiens, Bel-7402, 72 h, MTT, 72 hours incubation, Bel-7402 cells; read-out: GI50 Bel-7402
Procedure, shortened: as §1

[4] = tested on: Huh-7 (human hepatoma cells); experiment: MTT cancer cell growth inhibition; format: cell-based; settings: Homo sapiens, Huh-7, 72 h, MTT, 72 hours incubation, Huh-7 cells; read-out: GI50 Huh-7
Procedure, shortened: as §1

[5] = tested on: HT1080 (human fibrosarcoma cells); experiment: MTT cancer cell growth inhibition; format: cell-based; settings: Homo sapiens, HT-1080, 72 h, MTT, 72 hours incubation; read-out: GI50 HT1
Procedure, shortened: as §1

[6] = tested on: MDA-MB-231 (breast cancer cells); experiment: MTT cancer cell growth inhibition; format: cell-based; settings: Homo sapiens, MDA-MB-231, 72 h, read-out: GI50 MDA-MB-231, MTT, 72 hours incubation, MDA-MB-231 cells
Procedure, shortened: as §1

[7] = tested on: PANC-1 (Pac-1, human pancreatic cancer cells); experiment: MTT cancer cell growth inhibition; format: cell-based; settings: Homo sapiens, PANC-1, 72 h, MTT, 72 hours incubation; read-out: GI50 PAN
Procedure, shortened: as §1

[8] = tested on: HCC827 (human non-small cell lung cancer cells); experiment: MTT cancer cell growth inhibition; format: cell-based; settings: Homo sapiens, HCC827, 72 h, MTT, 72 hours incubation, HCC827 cells; read-out: GI50 HCC827
Procedure, shortened: as §1

[9] = tested on: MCF-7 (human breast cancer cells); experiment: MTT cancer cell growth inhibition; format: cell-based; settings: Homo sapiens, MCF7, 72 h, 72 hours incubation, read-out: GI50 MCF
Procedure, shortened: as §1

[10] = tested on: Hela (human cervical cancer cells); experiment: MTT cancer cell growth inhibition; format: cell-based; settings: Homo sapiens, HeLa, 72 h, MTT, 72 hours incubation; read-out: GI50 Hela
Procedure, shortened: as §1

[11] = tested on: K562 (human leukemia cells); experiment: MTT cancer cell growth inhibition; format: cell-based; settings: Homo sapiens, K562, 72 h, MTT, 72 hours incubation, K562 cells; read-out: GI50 K562
Procedure, shortened: as §1

[12] = tested on: SGC-7901 (human gastric cancer cells); experiment: MTT cancer cell growth inhibition; format: cell-based; settings: Homo sapiens, SGC-7901, 72 h, MTT, 72 hours incubation, SGC-7901 cells; read-out: GI50 SGC-7901
Procedure, shortened: as §1

[13] = tested on: KBM-5 (human chronic myelogenous leukemia); experiment: MTT cancer cell growth inhibition; format: cell-based; settings: Homo sapiens, KBM5, 72 h, MTT, 72 hours incubation, KBM-5 cells; read-out: GI50 KBM-5
Procedure, shortened: as §1

[14] = tested on: A549 (human lung cancer cells); experiment: MTT cancer cell growth inhibition; format: cell-based; settings: Homo sapiens, A549, 72 h, MTT, 72 hours incubation; read-out: GI50 A54
Procedure, shortened: as §1

HDAC11 = biological target: T1, HDAC11 (Homo sapiens, UniProt Q96DB2); experiment: HDAC biochemical activity measurement (fluorescent substrate deacetylation);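 further: HDAC11 enzyme acting on an acetyl-lysine fluorogenic substrate, then a developer frees the fluorophore, read at excitation 360 nm and emission 460 nm, IC50 over a compound dilution series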
T1 sequence (Q96DB2 1-347): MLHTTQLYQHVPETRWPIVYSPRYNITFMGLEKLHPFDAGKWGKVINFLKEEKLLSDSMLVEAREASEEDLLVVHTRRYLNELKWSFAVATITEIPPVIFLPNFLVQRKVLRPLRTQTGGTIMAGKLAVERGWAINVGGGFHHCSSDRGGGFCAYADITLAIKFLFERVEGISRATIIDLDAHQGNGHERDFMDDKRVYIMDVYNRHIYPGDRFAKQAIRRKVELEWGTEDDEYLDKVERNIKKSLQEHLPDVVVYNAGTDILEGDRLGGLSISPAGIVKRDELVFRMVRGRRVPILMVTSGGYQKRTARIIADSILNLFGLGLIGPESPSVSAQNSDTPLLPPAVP

HDAC3 = HDAC3 (Homo sapiens, UniProt O15379); experiment: as above;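 further: fluorogenic acetyl-lysine substrate (20 µM) deacetylated by HDAC3, then developer added for 15 min at room temperature, release of fluorophore read at excitation 360 nm, emission 460 nm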
Sequence of HDAC3 (O15379 whole entry, species assumed): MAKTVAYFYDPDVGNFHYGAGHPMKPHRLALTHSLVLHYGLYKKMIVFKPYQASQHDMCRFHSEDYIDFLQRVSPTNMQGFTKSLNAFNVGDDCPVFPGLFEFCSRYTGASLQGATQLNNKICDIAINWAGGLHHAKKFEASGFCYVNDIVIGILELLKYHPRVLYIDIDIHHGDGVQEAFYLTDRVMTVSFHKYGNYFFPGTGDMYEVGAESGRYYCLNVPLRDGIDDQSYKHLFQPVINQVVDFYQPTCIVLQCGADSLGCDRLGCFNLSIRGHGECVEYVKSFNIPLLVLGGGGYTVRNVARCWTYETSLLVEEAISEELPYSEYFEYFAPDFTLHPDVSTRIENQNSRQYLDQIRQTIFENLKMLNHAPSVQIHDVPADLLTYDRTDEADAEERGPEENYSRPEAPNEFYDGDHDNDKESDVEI
Sequence of HDAC3 (Q9Y618 395-489 partner limits assumed, species assumed): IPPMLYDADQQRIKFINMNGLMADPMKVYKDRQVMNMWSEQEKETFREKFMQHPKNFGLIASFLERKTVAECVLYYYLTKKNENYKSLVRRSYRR
Method: as §2, §3

[15] = tested on: lncap (prostate cancer cells); experiment: MTT cancer cell growth inhibition; format: cell-based; settings: Homo sapiens, LNCaP, 72 h, MTT, 72 hours incubation; read-out: GI50 lnca
Procedure, shortened: as §1

[16] = tested on: DU145 (human prostate cancer cells); experiment: MTT cancer cell growth inhibition; format: cell-based; settings: Homo sapiens, DU-145, 72 h, MTT, 72 hours incubation; read-out: GI50 Du1
Procedure, shortened: as §1

[17] = tested on: U937 (human leukemia cells); experiment: MTT cancer cell growth inhibition; format: cell-based; settings: Homo sapiens, U-937, 72 h, MTT, 72 hours incubation; read-out: GI50 U93
Procedure, shortened: as §1

[18] = tested on: MOLT-4 (human acute lymphoblastic leukemia cells); experiment: MTT cancer cell growth inhibition; format: cell-based; settings: Homo sapiens, MOLT-4, 72 h, MTT, 72 hours incubation; read-out: GI50 Mol
Procedure, shortened: as §1

[19] = HDAC1, 37° C. 30 minutes, read-out: IC50 HDAC1
[20] = Table 3, read-out: IC50 HDAC1, D (non-substituent)
[21] = read-out: IC50 HDAC11, HDAC11, 37° C. 30 minutes
[22] = read-out: IC50 HDAC3, HDAC3, 37° C. 30 minutes

Sequence of HDAC1 (Q13547 whole entry, species assumed): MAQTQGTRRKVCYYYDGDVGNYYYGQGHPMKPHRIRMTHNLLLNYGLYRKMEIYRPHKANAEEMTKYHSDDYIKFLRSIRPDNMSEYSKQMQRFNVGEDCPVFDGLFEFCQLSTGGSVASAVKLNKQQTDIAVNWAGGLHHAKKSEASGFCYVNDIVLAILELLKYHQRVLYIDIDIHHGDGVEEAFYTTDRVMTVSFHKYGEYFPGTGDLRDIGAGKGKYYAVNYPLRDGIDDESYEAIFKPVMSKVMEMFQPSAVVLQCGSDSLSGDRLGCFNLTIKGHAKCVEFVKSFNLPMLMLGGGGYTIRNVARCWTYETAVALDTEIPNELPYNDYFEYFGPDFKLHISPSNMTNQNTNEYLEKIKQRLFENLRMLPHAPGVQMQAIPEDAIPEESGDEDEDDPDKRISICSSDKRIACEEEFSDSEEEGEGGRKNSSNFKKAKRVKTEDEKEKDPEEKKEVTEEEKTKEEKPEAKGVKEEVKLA

## C/C=C1\NC(=O)c2cccc(n2)CNC(=O)C[C@@H](/C=C/CCSC(=O)CCCCCC)OC(=O)[C@H](C(C)C)NC1=O [Compound 2]
HDAC1; [19]
  IC50: 192 nM
HDAC1; [20]
  IC50: 192 nM
[1]
  GI50: 29 nM
[2]
  GI50: 29 nM
[3]
  GI50: 83 nM
[4]
  GI50: 73 nM
[5]
  GI50: 50 nM
[6]
  GI50: 92 nM
[7]
  GI50: 30 nM
[8]
  GI50: 42 nM
[9]
  GI50: 30 nM
[10]
  GI50: 30 nM
[11]
  GI50: 51 nM
[12]
  GI50: 26 nM
[13]
  GI50: 51 nM
[14]
  GI50: 40 nM
HDAC11; [21]
  IC50: 102 nM
HDAC3; [22]
  IC50: 177 nM

## C/C=C1\NC(=O)c2nc(ccc2F)CNC(=O)C[C@@H](/C=C/CCSC(C)=O)OC(=O)[C@H](Cc2ccc(O)cc2)NC1=O [Compound 81]
HDAC1; [19]
  IC50: 37 nM
HDAC1; Table 3, column C, read-out: IC50 HDAC1, C (six-membered ring with substituents)
  IC50: 37 nM
[1]
  GI50: 35 nM
[2]
  GI50: 34 nM
[3]
  GI50: 51 nM
[15]
  GI50: 30 nM
[4]
  GI50: 34 nM
[5]
  GI50: 50 nM
[6]
  GI50: 34 nM
[7]
  GI50: 50 nM
[8]
  GI50: 51 nM
[9]
  GI50: 30 nM
[16]
  GI50: 20 nM
[17]
  GI50: 40 nM
[10]
  GI50: 30 nM
[18]
  GI50: 30 nM
[11]
  GI50: 29 nM
[12]
  GI50: 59 nM
[13]
  GI50: 38 nM
[14]
  GI50: 50 nM
HDAC11; [21]
  IC50: 95 nM
HDAC3; [22]
  IC50: 16 nM

## C/C=C1\NC(=O)c2cccc(n2)CNC(=O)C[C@@H](/C=C/CCSC(=O)CCCCC)OC(=O)[C@H](C(C)C)NC1=O [Compound 3]
HDAC1; [19]
  IC50: 171 nM
HDAC1; [20]
  IC50: 171 nM
[1]
  GI50: 43 nM
[2]
  GI50: 34 nM
[3]
  GI50: 97 nM
[4]
  GI50: 43 nM
[5]
  GI50: 60 nM
[6]
  GI50: 91 nM
[7]
  GI50: 30 nM
[8]
  GI50: 33 nM
[9]
  GI50: 30 nM
[10]
  GI50: 50 nM
[11]
  GI50: 37 nM
[12]
  GI50: 28 nM
[13]
  GI50: 73 nM
[14]
  GI50: 50 nM
HDAC11
  IC50: 100 nM
HDAC3
  IC50: 145 nM

## C/C=C1\NC(=O)c2cc(C)cc(n2)CNC(=O)C[C@@H](/C=C/CCSC(C)=O)OC(=O)[C@H](Cc2ccccc2)NC1=O [Example 67]
[1]
  GI50: 51 nM
[2]
  GI50: 26 nM
[3]
  GI50: 84 nM
[15]
  GI50: 30 nM
[4]
  GI50: 33 nM
[5]
  GI50: 80 nM
[6]
  GI50: 33 nM
[7]
  GI50: 80 nM
[8]
  GI50: 84 nM
[9]
  GI50: 20 nM
[16]
  GI50: 30 nM
[17]
  GI50: 30 nM
[10]
  GI50: 40 nM
[18]
  GI50: 30 nM
[11]
  GI50: 39 nM
[12]
  GI50: 37 nM
[13]
  GI50: 46 nM
[14]
  GI50: 30 nM
HDAC11
  IC50: 92 nM
HDAC3
  IC50: 28 nM

Reference: patent US10065990B2, “Cyclic peptide compound, and preparation method, pharmaceutical composition and use thereof” (HANGZHOU GUANYU BIO-MEDICAL CO., LTD, priority 2013, dated 2018)
